Data on 1 compound can be found in patent publication US20080286394A1, “NOVEL HERBAL FORMULATION AS BRAIN TONIC” (priority 2003, published 2008).

In the experiment the test system is impairment of memory acquisition in step-down test in mice. Kind of experiment: Passive avoidance task (step-down test), scopolamine-induced impairment of memory acquisition. Format: in vivo. The following applies: scopolamine 0.4 mg/kg alone (amnesia-inducing agent).

Where “and” joins values, the source holds several entries; their conditions need not be identical. Equal entries are not always repeated. Marks after values point to notes of the source that are not given here.

Turning to `CN1[C@@H]2C[C@@H](OC(=O)[C@H](CO)c3ccccc3)C[C@H]1[C@@H]1O[C@@H]12` [Scopalamine, scopolamine], the “Latency (sec)” value was 7.7 ± 0.04^c sec and 7.8 ± 0.03^c sec and 7.8 ± 0.04^c sec; the No of mistakes was 66.8 ± 8.9^c and 65.3 ± 8.6^c and 69.8 ± 8.9^c.
